Results as given in patent US8378104B2 (OSI Pharmaceuticals, LLC, priority 2010, dated 2013).
Where a name gives a salt, the structure may show the parent alone. Read-outs that look alike come from different tables or passages of the source.

Molecular target: T1, TAK1-TAB1 fusion protein (Homo sapiens, UniProt O43318)
T1 construct: purchased Carna
T1 sequence (O43318 with tags, fused parts or gaps limits assumed): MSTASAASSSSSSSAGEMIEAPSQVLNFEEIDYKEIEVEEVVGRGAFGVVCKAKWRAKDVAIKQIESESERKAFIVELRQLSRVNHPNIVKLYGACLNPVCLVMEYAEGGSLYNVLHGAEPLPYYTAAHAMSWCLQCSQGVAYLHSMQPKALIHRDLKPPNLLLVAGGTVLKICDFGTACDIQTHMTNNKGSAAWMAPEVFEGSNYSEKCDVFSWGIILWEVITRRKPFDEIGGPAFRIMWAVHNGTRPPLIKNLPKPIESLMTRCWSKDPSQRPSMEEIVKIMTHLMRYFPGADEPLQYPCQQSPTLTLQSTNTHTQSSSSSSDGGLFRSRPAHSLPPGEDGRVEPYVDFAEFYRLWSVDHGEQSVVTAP
Assay: TAK1 biochemical assay (AlphaScreen, GST-MAP2K7 substrate)

[1] = TAK1-TAB1 fusion protein, GST-MAP2K7 substrate, read-out: mean TAK1 IC50 (Col. A)

## Nc1ncc(-c2cnn(C3CCNCC3)c2)c2cc(-c3cccc4cccnc34)oc12 [Example 32, 4-[1-(piperidin-4-yl)-1H-pyrazol-4-yl]-2-(quinolin-8-yl)furo[2,3-c]pyridine-7-amine]
[1]
  IC50: 1000 to 10000 nM

## COC(=O)c1cc2cc(-c3cc4c(-c5cnn(C6CCNCC6)c5)cnc(N)c4o3)ccc2s1 [Example 47, methyl 5-{7-amino-4-[1-(piperidin-4-yl)-1H-pyrazol-4-yl]furo[2,3-c]pyridine-2-yl}-1-benzothiophene-2-carboxylate]
[1]
  IC50: 1000 to 10000 nM

## Nc1ncc(-c2ccc(C(=O)O)s2)c2cc(-c3csc4cnccc34)oc12 [Example 381, 5-(7-amino-2-thieno[2,3-c]pyridin-3-yl-furo[2,3-c]pyridin-4-yl)-thiophene-2-carboxylic acid]
[1]
  IC50: 1000 to 10000 nM

## Nc1ncc(-c2cnn(C3CCNCC3)c2)c2cc(-c3ccc4[nH]cnc4c3)oc12 [Example 39, 2-(1H-benzimidazol-5-yl)-4-[1-(piperidin-4-yl)-1H-pyrazol-4-yl]furo[2,3-c]pyridine-7-amine]
[1]
  IC50: 100 to 1000 nM

## Cc1c(-c2cccc3ccsc23)oc2c(N)ncc(-c3cnn(C4CCNCC4)c3)c12 [Example 10, 2-(1-benzothiophen-7-yl)-3-methyl-4-[1-(piperidin-4-yl)-1H-pyrazol-4-yl]furo[2,3-c]pyridin-7-amine hydrochloride]
[1]
  IC50: 1000 to 10000 nM

## CC(=O)N1CCC(n2cc(-c3cnc(N)c4oc(C5=CCNCC5)cc34)cn2)CC1 [Example 95, 1-(4-{4-[7-amino-2-(1,2,3,6-tetrahydropyridin-4-yl)furo[2,3-c]pyridin-4-yl]-1H-pyrazol-1-yl}piperidin-1-yl)ethanone hydrochloride]
  IC50: 100 to 1000 nM

## COC(=O)c1ccc(-c2cnc(N)c3oc(-c4csc5cnccc45)cc23)s1 [Example 382, 5-(7-amino-2-thieno[2,3-c]pyridin-3-yl-furo[2,3-c]pyridin-4-yl)-thiophene-2-carboxylic acid methyl ester]
[1]
  IC50: > 10000 nM

## CC(=O)N1CCC(n2cc(-c3cnc(N)c4oc(-c5cccc6c5cnn6C)cc34)cn2)CC1 [Example 214, 1-(4-{4-[7-amino-2-(1-methyl-1H-indazol-4-yl)furo[2,3-c]pyridin-4-yl]-1H-pyrazol-1-yl}piperidin-1-yl)ethanone]
[1]
  IC50: 100 to 1000 nM

## CC(=O)N1CCC(n2cc(-c3cnc(N)c4oc(-c5cccc(OCCC(C)C)c5)cc34)cn2)CC1 [Example 208, 1-[4-(4-{7-amino-2-[3-(3-methylbutoxy)phenyl]furo[2,3-c]pyridin-4-yl}-1H-pyrazol-1-yl)piperidin-1-yl]ethanone]
[1]
  IC50: > 10000 nM

## CC(=O)N1CCC(n2cc(-c3cnc(N)c4oc(-c5cccc(OCc6ccc(Cl)cc6)c5)cc34)cn2)CC1 [Example 206, 1-{4-[4-(7-amino-2-{3-[(4-chlorobenzyl)oxy]phenyl}furo[2,3-c]pyridin-4-yl)-1H-pyrazol-1-yl]piperidin-1-yl}ethanone]
[1]
  IC50: > 10000 nM

## Nc1ncc(-c2cnn(C3CCNCC3)c2)c2cc(C3=CCNCC3)oc12 [Example 49, 4-[1-(piperidin-4-yl)-1H-pyrazol-4-yl]-2-(1,2,3,6-tetrahydropyridin-4-yl)furo[2,3-c]pyridin-7-amine dihydrochloride]
[1]
  IC50: 1000 to 10000 nM

## CC(=O)N1CCC(n2cc(-c3cnc(N)c4oc(-c5csc6cn(C)c(=O)cc56)cc34)cn2)CC1 [Example 244, 3-{4-[1-(1-acetylpiperidin-4-yl)-1H-pyrazol-4-yl]-7-aminofuro[2,3-c]pyridin-2-yl}-6-methylthieno[2,3-c]pyridin-5(6H)-one trifluoroacetate]
[1]
  IC50: 1000 to 10000 nM

## COc1cccc(-c2cc3c(-c4cnn(C5CCN(C(C)=O)CC5)c4)cnc(N)c3o2)c1 [Example 161, 1-(4-{4-[7-amino-2-(3-methoxyphenyl)furo[2,3-c]pyridin-4-yl]-1H-pyrazol-1-yl}piperidin-1-yl)ethanone]
[1]
  IC50: 1000 to 10000 nM

## COc1nn(C)cc1-c1cnc(N)c2oc(-c3csc4cnccc34)cc12 [Example 343, 4-(3-methoxy-1-methyl-1H-pyrazol-4-yl)-2-thieno[2,3-c]pyridin-3-yl-furo[2,3-c]pyridin-7-ylamine]
  IC50: 100 to 1000 nM
